Drawing on US7964727B2, “Quinolonecarboxylic acid compounds having 5-HT4 receptor agonistic activity” (Pfizer Inc., priority 2003, dated 2011), this text covers melting point for four compounds.

Counter-ions that a name gives are not always drawn.

Take `CC(C)n1c(=O)c(C(=O)NCC2CCN(CC3(O)CCOCC3)CC2)cc2c(Cl)cccc21`: the melting point (usually the temperature of the solid-liquid transition) came out at 227 °C.
As to `Cc1cccc2c1cc(C(=O)NCC1CCN(CC3(O)CCOCC3)CC1)c(=O)n2C(C)C`, the melting point came out at 222 °C.
The value for `CC(C)n1c(=O)c(C(=O)NCC2CCN(CC3(O)CCOCC3)CC2)cc2c(F)cccc21` (as salt: hydrochloride) was 275.7 °C; that for `Cc1cccc2c1cc(C(=O)NCC1CCN(CC3CCNCC3)CC1)c(=O)n2C(C)C` (as salt: hydrochloride) was 240.7 °C.
